The target of test [1] is T1, HIF-2α (Homo sapiens, UniProt Q99814). Description: HIF-2α Luciferase Reporter Assay (serum), HRE-luciferase 786-0 cells in 100% human serum. Type of test: cell-based. The note with it: for IC50: 100% human serum, 786-0 reporter cells, overnight incubation, read-out: Serum Potency; for Serum Shift (approximate): ratio of IC50 in 100% serum to IC50 in serum free conditions. The method in brief:
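786-0 cells stably expressing an HRE-luciferase reporter were plated and rested 3 h. They were then treated overnight at 37 °C with compound diluted in 100% human serum. Serum was replaced with Opti-MEM, ONE-Glo luminescence was read, and IC50 came from a 4-parameter logistic fit.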
In general terms: Reporter assays use an easily measured gene product as a stand-in for the process of interest.

The target in test [2] is T2, Biotin tagged HIF-2α protein containing PAS-B domain (240-350) (Homo sapiens, UniProt Q99814).
T2 construct: Biotin tagged HIF-2α protein containing PAS-B domain (240-350) was prepared and purified in-house; made in house
T2 sequence (Q99814 240-350): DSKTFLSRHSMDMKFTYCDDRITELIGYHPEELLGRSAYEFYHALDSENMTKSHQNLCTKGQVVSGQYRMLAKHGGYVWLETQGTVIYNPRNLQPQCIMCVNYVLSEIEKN
Description: HIF-2α Scintillation Proximity Assay (SPA) binding assay. The note with it: 50 nM HIF-2α protein, 25 nM 3H-tracer, 2% DMSO. As to the method:
HIF-2α Scintillation Proximity Assay (SPA) Binding Assay:
Biotin tagged HIF-2α protein containing PAS-B domain (240-350) was prepared and purified in-house.
Compounds solubilized in DMSO were dispensed into a white 384-well polystyrene non-binding flat clear bottom plate (Greiner Bio-One, Cat #781903) using an HP D300 dispenser. Ten microliters of biotinylated HIF-2α protein in buffer (25 mM Tris-HCl, pH 7.4, 150 mM NaCl, 0.15% BSA and 0.001% Tween 20) was added to the compound wells and allowed to incubate for 1 hour at room temperature. Ten microliters of SPA bead mix were added to the wells and incubated for an additional 45 minutes, followed by 10 ul of ^3H-tracer solution. Final assay conditions comprised 50 nM HIF-2α protein, 25 nM radiolabeled tracer and 3 ug beads per well with compounds in 2% DMSO. The plate was read using a MicroBeta Microplate Counter (PerkinElmer) for luminescence detection. The IC50 values of the test compounds were determined from compound dose response curves fitted using a standard four parameter fit equation and are reported in Table 2.

Test [3] has as its target T1, HIF-2α. The test can be described thus: HIF-2α Luciferase Reporter Assay (serum free) in HIF-Luc-786-0 cells. Type of test: cell-based. The note with it: Opti-MEM, 786-0 reporter cells, 20 hours incubation. The method in brief: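 786-0 cells stably transduced with HIF luciferase reporter, 20,000 cells/well in serum-free Opti-MEM, compounds (50 uM downward, 1% DMSO) 20 h at 37 °C. ONE-Glo luminescence normalized to DMSO and no-cell controls; IC50 from four-parameter fit.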

Some results are limits rather than exact numbers.

T1 sequence (Q99814 whole entry): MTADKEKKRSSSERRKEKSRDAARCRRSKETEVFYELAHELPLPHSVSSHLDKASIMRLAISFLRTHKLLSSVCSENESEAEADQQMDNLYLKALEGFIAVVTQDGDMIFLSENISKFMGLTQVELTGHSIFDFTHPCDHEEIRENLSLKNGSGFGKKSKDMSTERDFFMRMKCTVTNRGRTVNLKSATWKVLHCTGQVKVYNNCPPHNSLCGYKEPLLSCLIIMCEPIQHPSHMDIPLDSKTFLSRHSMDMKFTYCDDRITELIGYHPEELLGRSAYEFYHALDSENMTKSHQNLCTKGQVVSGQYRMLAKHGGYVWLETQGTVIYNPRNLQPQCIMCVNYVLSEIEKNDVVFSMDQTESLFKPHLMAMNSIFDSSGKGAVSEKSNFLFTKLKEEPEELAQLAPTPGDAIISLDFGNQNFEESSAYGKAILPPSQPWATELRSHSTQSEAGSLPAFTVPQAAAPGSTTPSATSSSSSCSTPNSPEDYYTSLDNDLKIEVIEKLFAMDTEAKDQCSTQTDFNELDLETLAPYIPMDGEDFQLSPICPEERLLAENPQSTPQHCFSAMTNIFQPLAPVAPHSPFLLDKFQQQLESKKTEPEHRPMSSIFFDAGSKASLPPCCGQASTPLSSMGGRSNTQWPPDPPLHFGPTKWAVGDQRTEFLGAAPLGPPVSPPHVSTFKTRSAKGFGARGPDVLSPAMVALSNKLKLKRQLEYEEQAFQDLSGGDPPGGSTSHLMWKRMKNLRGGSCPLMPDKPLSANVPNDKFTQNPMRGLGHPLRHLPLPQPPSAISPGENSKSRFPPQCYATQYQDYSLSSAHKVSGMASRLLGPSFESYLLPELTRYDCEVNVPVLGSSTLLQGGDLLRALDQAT

`O[C@H]1c2c(C(F)(F)F)nn(CCSC(F)(F)F)c2CCC1(F)F` [Example 7, (4S)-5,5-difluoro-3-(trifluoromethyl)-1-[2-(trifluoromethylsulfanyl)ethyl]-6,7-dihydro-4H-indazol-4-ol]: the results for the IC50 (at HIF-2α [1]; in test [2]; against HIF-2α [3]) were 0.1 to 1 µM, below 0.1 µM and below 0.1 µM, respectively. In addition, the “Serum Shift (approximate)” value on HIF-2α [1] came out at 5.
Regarding `OC(CCn1nc(C(F)(F)F)c2c1CCC(F)(F)[C@H]2O)C(F)(F)F` (stereo partly drawn) [Example 16, (4S)-5,5-difluoro-1-(4,4,4-trifluoro-3-hydroxybutyl)-3-(trifluoromethyl)-6,7-dihydro-4H-indazol-4-ol], the IC50 at HIF-2α [1] was above 1 µM; in test [2], 0.1 to 1 µM; at HIF-2α [3] it was 0.1 to 1 µM. The “Serum Shift (approximate)” value on HIF-2α [1] was found to be 22.
As for `O[C@H]1c2c(C(F)(F)F)nn(CCC3CC(F)(F)C3)c2CCC1(F)F` [Example 44, (4S)-1-[2-(3,3-difluorocyclobutyl)ethyl]-5,5-difluoro-3-(trifluoromethyl)-6,7-dihydro-4H-indazol-4-ol], the IC50 at HIF-2α [1] was above 1 µM; in test [2] it was 0.1 to 1 µM; at HIF-2α [3], 0.1 to 1 µM. Also, the “Serum Shift (approximate)” value on HIF-2α [1] was 6.
Take `CC(CCn1nc(C(F)(F)F)c2c1CCC(F)(F)[C@H]2O)C(F)(F)F` (stereo partly drawn) [Example 38, (4S)-5,5-difluoro-3-(trifluoromethyl)-1-(4,4,4-trifluoro-3-methylbutyl)-6,7-dihydro-4H-indazol-4-ol]: the IC50 at HIF-2α [1] is 0.1 to 1 µM; in test [2] it was below 0.1 µM; on HIF-2α [3] it was 0.1 to 1 µM. Moreover, at HIF-2α [1], the “Serum Shift (approximate)” value was found to be 8.
Regarding `O[C@H]1c2c(C(F)(F)F)nn(CC3CC3(F)F)c2CCC1(F)F` (single isomer, unassigned) [23/24 DIAST-2], the IC50 was above 1 µM on HIF-2α [1], 0.1 to 1 µM in test [2] and 0.1 to 1 µM against HIF-2α [3]. Moreover, the “Serum Shift (approximate)” value on HIF-2α [1] was 10.
With `O[C@H]1c2c(C(F)(F)F)nn(CC3CC(F)(F)C3)c2CCC1(F)F` [Example 2, (4S)-1-[(3,3-difluorocyclobutyl)methyl]-5,5-difluoro-3-(trifluoromethyl)-6,7-dihydro-4H-indazol-4-ol], the IC50 at HIF-2α [1] is above 1 µM; in test [2], 0.1 to 1 µM; against HIF-2α [3], 0.1 to 1 µM. Moreover, the “Serum Shift (approximate)” value on HIF-2α [1] is reported as 13.
With `O[C@H]1c2c(C(F)(F)F)nn(CCC3CC3)c2CCC1(F)F` [Example 22, (4S)-1-(2-cyclopropylethyl)-5,5-difluoro-3-(trifluoromethyl)-4,5,6,7-tetrahydro-1H-indazol-4-ol], the IC50 at HIF-2α [1] was above 1 µM; in test [2] it was 0.1 to 1 µM; at HIF-2α [3] it was 0.1 to 1 µM. Moreover, the “Serum Shift (approximate)” value on HIF-2α [1] came out at 10.
`O[C@H]1c2c(C(F)(F)F)nn(CCC3CC3(F)F)c2CC1(F)F` (stereo partly drawn) [Example 58, (4S)-1-[2-(2,2-difluorocyclopropyl)ethyl]-5,5-difluoro-3-(trifluoromethyl)-4,6-dihydrocyclopenta[c]pyrazol-4-ol]: the IC50 is 0.1 to 1 µM on HIF-2α [1], below 0.1 µM in test [2] and below 0.1 µM on HIF-2α [3]. Besides, the “Serum Shift (approximate)” value on HIF-2α [1] was found to be 3.
Turning to `O[C@H]1c2c(C(F)(F)F)nn(CCCC(F)F)c2CCC1(F)F` [Example 31, (4S)-1-(4,4-difluorobutyl)-5,5-difluoro-3-(trifluoromethyl)-6,7-dihydro-4H-indazol-4-ol], the results for the IC50 (on HIF-2α [1]; in test [2]; on HIF-2α [3]) were above 1 µM, 0.1 to 1 µM and 0.1 to 1 µM, respectively. Besides, on HIF-2α [1], the “Serum Shift (approximate)” value was 7.
Consider `O[C@H]1c2c(C(F)(F)F)nn(CCOC(F)(F)F)c2CCC1(F)F` [Example 60, (4S)-5,5-difluoro-1-[2-(trifluoromethoxy)ethyl]-3-(trifluoromethyl)-6,7-dihydro-4H-indazol-4-ol], for which the IC50 (at HIF-2α [1]; in test [2]; on HIF-2α [3]) was above 1 µM throughout. Moreover, the “Serum Shift (approximate)” value at HIF-2α [1] is listed as 3.
Consider `CC(C)CCn1nc(C(F)(F)F)c2c1CCC(F)(F)[C@H]2O` [Example 40, (4S)-5,5-difluoro-1-(3-methylbutyl)-3-(trifluoromethyl)-6,7-dihydro-4H-indazol-4-ol], for which the IC50 on HIF-2α [1] was above 1 µM; in test [2], 0.1 to 1 µM; against HIF-2α [3], 0.1 to 1 µM. In addition, the “Serum Shift (approximate)” value at HIF-2α [1] is on record as 31.

The record behind these values is patent US12071411B2, “Inhibitors of HIF-2α and methods of use thereof” (ARCUS BIOSCIENCES, INC., priority 2021, dated 2024).
